As usually defined, the Kd is the equilibrium constant for the complex coming apart. As usually defined, the IC50 is the concentration that inhibits the measured activity by half.

The subject of one experiment is HIF-1α/HIF-1β PPI. Put plainly: SICLOPPS CX5 library screen in HIF-1 RTHS with biopanning and NGS. Type of experiment: cell-based, E. coli. To be noted: after 2 rounds of biopanning. An excerpt: The HIF-1 RTHS links the PPI between HIF-1α-P22 and HIF-1β-434 fusion proteins to the life/death of the host E. coli via three reporter genes.[14] Interaction of HIF-1α and HIF-1β results in the formation of a chimeric P22/434 repressor that inhibits the transcription of the KanR and His3 reporter genes, which are required for cell survival in selection media (Figure S1). Disruption of the HIF-1α/HIF-1β PPI also disrupts the repressor complex, leading to transcription of the reporter genes and survival of colonies that contain cyclic peptide HIF-1 inhibitors. Thus, cells containing cyclic peptide inhibitors of the targeted PPI will survive and grow on selective media, whereas all others will not. The HIF-1 RTHS cells were transformed with the sequenced CX5 library and, after recovery, plated onto a selective medium. After incubation for 48 h at 37 °C, selection plates were scraped to collect all colonies, and the SICLOPPS plasmids were isolated. The extein coding region of these plasmids was subsequently sequenced by NGS. We observed sequence enrichment after one round of biopanning, with the three sequences (CAAAAA, CRLYVL, and CVTYVL) making up 7.8% of the entire library with over 10 000 copies each per 1 M reads (Figure 2a). The prevalence of the control sequence was reduced by 44% from 80 000 to 45 000 copies per million reads, which further indicated enrichment of cyclic peptide inhibitors of the HIF-1α/HIF-1β PPI in the RTHS. The next 47 sequences were present with over 1000 copies after round 1 which made up a further 15% of the library (Figure 2a). HIF-1 RTHS cells were transformed with the SICLOPPS plasmid library isolated from round 1 of biopanning, for a second round of selection. After incubation, all colonies were scraped, and plasmids were isolated and sequenced by NGS as before. We observed further sequence enrichment after the second round of biopanning, evident by the shift of the library population from the mostly low-prevalence sequences in both the naïve library and after one round of biopanning to mostly highly prevalent cyclic peptide sequences after round 2 of biopanning (Figure 2b). With 159 000 copies per 1 M reads, the most prevalent sequence is CRTYIL, while the next 14 sequences were all present with more than 10 000 copies per 1 M. The top 15 sequences make up over 50% of the entire library. The CA5 internal standard dropped to 0.5%, providing further evidence of enrichment of active inhibitors during biopanning.
All reagents were purchased from Fisher Scientific or Sigma Aldrich UK unless specified otherwise.
Restriction enzymes and microbiology reagents were purchased from New England Biolabs Inc., FisherScientific (UK) or Promega (UK) and were used as directed by the manufacturer. Primers and oligonucleotides were synthesised by Integrated DNA Technologies (UK). DNA sequencing was carried out by Eurofins MWG Operon (Germany).
Construction of the RTHS and SICLOPPS library was conducted as previously described.2 […]
Electrocompetent RTHS-HIF 1 cells2 were transformed with 100 ng freshly prepared SICLOPPS CX5 library, prepared as previously detailed.3 The recovery mixture was plated on 6 square plates containing M9 minimal media supplemented with 50 µg/mL ampicillin, 25 µg/mL Spectinomycin, 50 µg/mL kanamycin, 35 µg/mL chloramphenicol, 100 µM IPTG, 6.5 µM L-arabinose and 7.5 mM 3-amino triazole and incubate at 37 °C for 48 h. To ensure sufficie transformation efficiency, 10 µL transformation mixture was subjected to 10-fold serial dilutions plated on LB-agar with 35 µg/m […]
Chloramphenicol. […] All cells were […]
then harvested by resuspending the colonies in a total of 50 mL LB medium and transferring to a centrifuge tube and centrifugation for 30 min at 4000 rpm and 4°C. The cell pellet was then subjected to maxi prep (GeneJET Plasmid Maxiprep kit Thermo Scientific) and the resulting plasmid library was used for the next round of biopanning and NGS. The second round of bio panning was […]

The next experiment concerns the target T1, PAS-B domain of HIF-1α (Homo sapiens, UniProt Q16665).
T1 construct: The HIF-1a PAS-B domain was expressed and purified as previously described; made in house
Briefly: Microscale thermophoresis (MST) binding to HIF-1α PAS-B domain. To be noted: MST, HIF-1α PAS-B, mean (n = 3) ± SEM; read-out: KD. The protocol:
We synthesized the top 20 cyclic peptides from the ranking approach. We also synthesized cyclo-CLLFVY as a control.[14] These compounds were assessed for binding to the PAS-B domain of HIF-1α by microscale thermophoresis (MST). […]
In general terms: Microscale thermophoresis detects binding through changes in fluorescence in a small temperature gradient.

Another experiment concerns HIF-1. Put plainly: HIF-1-dependent luciferase reporter assay in U2OS-HRE-Luc cells in hypoxia. It is filed as cell-based, human. The note with it: 16 h in hypoxia; for reduction in luminescence: 40 μM. The method, then:
HIF Luciferase Reporter Assays
Assays were conducted in previously reported U2OS-HRE-Luciferase (U2OS-HRE-Luc) cells.2 Upon reaching 80-90% confluency, U2OS-HRE-Luc were plated (10 000 cells/well) in 96-well plates (Perkin-Elmer) and incubated in a cell incubator for 16 h. The cells were treated with cyclic peptide at […]
manufacturer’s protocol. […] The
(In general: A reporter such as luciferase makes a cellular process visible.)

Peptide text beside a SMILES is read from it.

T1 sequence (Q16665 228-298 limits assumed): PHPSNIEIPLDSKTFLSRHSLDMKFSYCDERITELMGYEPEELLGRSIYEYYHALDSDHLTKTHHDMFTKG

As for `CC[C@H](C)[C@@H]1NC(=O)[C@H](CCCNC(=N)N)NC(=O)[C@H](CCSC)NC(=O)[C@H](C(C)C)NC(=O)[C@H](CS)NC(=O)[C@H](C)NC1=O` [CVMRIA, cyclo-CVMRIA] (cyclo(ACVMRI)), the “Enrichment after pan 2 [%]” value in the experiment with HIF-1α/HIF-1β PPI was 0.6968%. Besides, the Kd on PAS-B domain of HIF-1α was determined as 168 ± 40 µM.

Turning to `CC(C)C[C@@H]1NC(=O)[C@H](CS)NC(=O)[C@H](Cc2ccccc2)NC(=O)[C@H](CC(C)C)NC(=O)[C@H](CC(C)C)NC(=O)[C@H](CSSC[C@H](N)C(=O)NCC(=O)N[C@@H](CCCNC(=N)N)C(=O)N[C@@H](CCCCN)C(=O)N[C@@H](CCCCN)C(=O)N[C@@H](CCCNC(=N)N)C(=O)N[C@@H](CCCNC(=N)N)C(=O)N[C@@H](CCC(N)=O)C(=O)N[C@@H](CCCNC(=N)N)C(=O)N[C@@H](CCCNC(=N)N)C(=O)N[C@@H](CCCNC(=N)N)C(=O)N2CCC[C@H]2C(=O)N2CCC[C@H]2C(=O)N[C@@H](CCC(N)=O)C(=O)O)NC1=O` [Tat-cyclo-CLLFCL], the luciferase signal reduction with HIF-1 (20 μM) was found to be 70%. The molecule further had a reduction in luminescence in the experiment with HIF-1 of 84%. The IC50 in the experiment on HIF-1 (multiple doses, read-out: IC50 of reduction in the hypoxia-mediated luciferase signal) was determined as 13 ± 4 µM.

On to Tat-cyclo-CLLFVY [reference compound], for which the reduction in luminescence in the experiment with HIF-1 was 28%.

Values taken from article PMC11494503, “Next Generation SICLOPPS Screening for the Identification of Inhibitors of the HIF-1α/HIF-1β Protein–Protein Interaction” (ACS Chemical Biology, 2024).
